Patent US6710043B1, “Amide compounds” (Fujisawa Pharmaceutical Co., Ltd., priority 1999, dated 2004)

Test system: Male Fischer 344 rats
Assay: Penile Erection in Rat
Type: in vivo
Details: male Fischer 344 rats (n=7), observed for 60 minutes, mean number
Method: (This test was carried out according to a similar manner to that described in Jpn. J. Pharmacol., Vol. 64, 147-153 (1994))
Male Fischer 344 rats at the age of 8 weeks (n=7) were used. All rats were handled 3 minutes a day for three successive days before the tests. The rats were tested in groups of seven and various doses of the test compound were given in semi-randomized order. The test compounds were suspended in 0.5% methyl-cellulose immediately before use, and given intraperitoneally in a volume of 1 ml/kg just before the start of test. […] A mirror was situated behind each box […]. Data was expressed as a mean number.

SMILES | Penile Erection (dose 1 mg/kg intraperitoneally) | Penile Erection (dose 0.32 mg/kg intraperitoneally)
CC(=O)N1CCN(C(=O)Nc2ccc(F)cc2)CC1 [Example 2, 1-acetyl-4-(4-fluorophenylcarbamoyl)piperazine] | 1.14 number/hr | –
O=C(NC1CCN(C(=O)C2CC2)CC1)c1ccc(F)cc1 [Example 19, N-(1-cyclopropylcarbonylpiperidin-4-yl)-4-fluorobenzamide] | – | 0.75 number/hr
